The values below come from patent US5759827A, “Acylated oligopeptides for transfecting cells” (Hoffmann-La Roche Inc., priority 1995, dated 1998).

Square brackets hold non-standard residues; d marks the D form. Peptide text beside a SMILES is read from it. * marks the point of attachment. Palmitoyl = CCCCCCCCCCCCCCCC(=O)*; dDab = NCC[C@@H](N)C(=O)O; Orn = NCCC[C@H](N)C(=O)O; dDap = NC[C@@H](N)C(=O)O; Dab = NCC[C@H](N)C(=O)O; Dap = NC[C@H](N)C(=O)O; NHNH2 = NN*

Holding throughout (type): cell-based
Assay [1] deals with COS-1 cells. In words: Transfection efficiency in COS-1 cells with a beta-galactosidase encoding plasmid. To be noted: for Beta-galactosidase activity 1 μg DNA/well / Beta-galactosidase activity 0.2 μg DNA/well: formulated as in example 1 (DOPE liposomes added to compound/DNA), 48 h after transfection. As to the method: Dioleoyl phosphatidylethanolamine (DOPE, Avanti Polar Lipids Inc.) liposomes were prepared by drying under vacuum the lipid in solution in chloroform and then rehydrating the lipid film with 30 mM Tris Cl pH 8.5. Final lipid concentration was 2 mM. The lipid dispersion was subsequently sonicated for 10-15 min in a sonicator bath (Elgasonic, 50 kHz).
(§1) Twenty μg of plasmid DNA were diluted with 260 μl of distilled, sterile water in a polystyrene sterile tube. […] 140 μl of DOPE liposomes were then slowly added, drop by drop, to obtain a molar ratio between DOPE and Nγ-palmitoyl-D-(α,γ-diaminobutyryl)-L-(α,γ-diaminobutyric acid) hydrazide of 5:1. The complex was carefully mixed. The preparation was allowed to stand at room temperature during about 5 min and was then added to COS-1 cells grown in 96-well plates.
as §1, with “Mixed micelles of DOPE (2 μmoles) and dicaproyl phosphatidylcholine (15 μmotes) were prepared by drying the lipids under vacuum and then rehydrating the lipid film with 1 ml of 30 mM TrisCl buffer pH 8.5. Twenty” for “Twenty”, “pCH110” for “DNA”, “distilled” for “distilled, sterile”, “DOPE/dicyproyl PC mixed micelles” for “DOPE liposomes”, “added” for “added, drop by drop,”
The mixture was added to 20 μg of plasmid DNA in 260 μl of distilled water, so that the +/- charge ratio between Nγ-palmitoyl-D-(α,γ-diaminobutyryl)-L-(α,γ-diaminobutyric acid) hydrazide and plasmid DNA was 2:1. The complex was carefully mixed. The preparation was allowed to stand at room temperature during about 5 min and was then added to COS-1 cells grown in 96-well plates.

The test system of assay [2] is 293-EBNA. Briefly: Transfection efficiency with a luciferase encoding vector, 293-EBNA cell-line. As to the method:
(§2) A transfecting complex with Nγ-palmitoyl-D-(α,γ-diaminobutyryl)-L-(α,γ-diaminobutyric acid) hydrazide (compound A) was prepared as described in example 1. Lipofectamine™ complex was prepared following manufacturer's instructions. The transfection efficiency of both systems was compared in various cell-lines using a luciferase encoding vector.
(§3) Cells were transfected with a luciferase encoding plasmid and luciferase activity was measured 48 h after transfection. Results are expressed as relative light units.

Assay [3] concerns CHO K1. Briefly: Transfection efficiency with a luciferase encoding vector, CHO K1 cell-line. As to the method: as §2, §3
Assay [4] relates to LM tk-. Briefly: Transfection efficiency with a luciferase encoding vector, LM tk- cell-line. As to the method: as §2, §3
Assay [5] relates to HeLa. In words: Transfection efficiency with a luciferase encoding vector, HeLa cell-line. As to the method:
as §2, §3

Consider `CCCCCCCCCCCCCCCC(=O)N[C@@H](CCN)C(=O)NN` [N^α palmitoyl-L (α,γ-diaminobutyric acid) hydrazide], for which, in assay [1], the “Beta-galactosidase activity 1 μg DNA/well” value was 1411 μunits of beta-galactosidase p.
As for `CCCCCCCCCCCCCCCC(=O)N[C@@H](CCN)C(=O)N[C@@H](CCN)C(=O)NN` [N^α palmitoyl-L (α,γ-diaminobutyryl)-L (α,γ-diaminobutyric acid) hydrazide] (Palmitoyl-[Dab]-[Dab]-NHNH2), in assay [1], the “Beta-galactosidase activity 0.2 μg DNA/well” value is on record as 2742 μunits of beta-galactosidase p and the “Beta-galactosidase activity 1 μg DNA/well” value is listed as 3519 μunits of beta-galactosidase p.
In the case of `CCCCCCCCCCCCCCCC(=O)N[C@@H](CCCNC(=N)N)C(=O)N[C@@H](CCCNC(=N)N)C(=O)OCC` [N^α palmitoyl-L arginyl-L arginine ethyl ester] (Palmitoyl-Arg-Arg-OEt), in assay [1], the “Beta-galactosidase activity 0.2 μg DNA/well” value is given as 0 μunits of beta-galactosidase p and the “Beta-galactosidase activity 1 μg DNA/well” value is recorded as 382 μunits of beta-galactosidase p.
For the compound `CCCCCCCCCCCCCCCC(=O)N[C@@H](CCCNC(=N)N)C(=O)N[C@@H](CCCN)C(=O)OC` [N^α palmitoyl-L arginyl-L ornithine methyl ester] (Palmitoyl-Arg-[Orn]-OMe), in assay [1], the “Beta-galactosidase activity 0.2 μg DNA/well” value was 0 μunits of beta-galactosidase p and the “Beta-galactosidase activity 1 μg DNA/well” value is given as 870 μunits of beta-galactosidase p.
Taken in the same sequence, the figures for `CCCCCCCCCCCCCCCC(=O)N[C@@H](CCCCN)C(=O)N[C@@H](CCCCN)C(=O)NCc1ccccc1` [N^α palmitoyl-L lysyl-L lysine benzylamide] were 510 μunits of beta-galactosidase p and 845 μunits of beta-galactosidase p.
Consider `CCCCCCCCCCCCCCCC(=O)N[C@@H](CCCCN)C(=O)N[C@@H](CCCCN)C(=O)O` [N^α palmitoyl-L lysyl-L lysine], for which, in assay [1], the “Beta-galactosidase activity 0.2 μg DNA/well” value is 0 μunits of beta-galactosidase p and the “Beta-galactosidase activity 1 μg DNA/well” value was 530 μunits of beta-galactosidase p.
On to `CCCCCCCCCCCCCCCC(=O)N[C@@H](CCCCN)C(=O)N[C@@H](CCCCN)C(=O)N[C@@H](CCCCN)C(=O)NN` [N^α palmitoyl-L lysyl-L lysyl-L lysine hydrazide], for which, in assay [1], the “Beta-galactosidase activity 0.2 μg DNA/well” value is listed as 136 μunits of beta-galactosidase p and the “Beta-galactosidase activity 1 μg DNA/well” value was 2232 μunits of beta-galactosidase p.
Taken in the same sequence, the figures for `CCCCCCCCCCCCCCCC(=O)N[C@@H](CCCCN)C(=O)N[C@@H](CO)C(=O)OC` [N^α palmitoyl-L lysyl-L serine methyl ester] were 0 μunits of beta-galactosidase p and 219 μunits of beta-galactosidase p.
For the compound `CCCCCCCCCCCCCCCC(=O)N[C@@H](CCCN)C(=O)N[C@@H](CCCN)C(=O)OC` [N^α palmitoyl-L ornithyl-L ornithine methyl ester], in assay [1], the “Beta-galactosidase activity 0.2 μg DNA/well” value is given as 44 μunits of beta-galactosidase p and the “Beta-galactosidase activity 1 μg DNA/well” value is given as 789 μunits of beta-galactosidase p.
Consider `CCCCCCCCCCCCCCCC(=O)NCC[C@@H](N)C(=O)N[C@H](CCN)C(=O)N[C@@H](CCN)C(=O)NN` [N^γ palmitoyl-D (α,γ-diaminobutyryl)-D (α,γ-diaminobutyryl)-L (α,γ-diaminobutyric acid) hydrazide] (H-[dDab](Palmitoyl)-[dDab]-[Dab]-NHNH2), for which, in assay [1], the “Beta-galactosidase activity 0.2 μg DNA/well” value was 1847 μunits of beta-galactosidase p and the “Beta-galactosidase activity 1 μg DNA/well” value is recorded as 7768 μunits of beta-galactosidase p.
Take `CCCCCCCCCCCCCCCC(=O)NC[C@@H](N)C(=O)N[C@@H](CN)C(=O)OCC` [N^γ palmitoyl-D (α,ε-diaminopropionyl)-L (α,ε-diaminopropionic acid) ethyl ester] (H-[dDap](Palmitoyl)-[Dap]-OEt): in assay [1], the “Beta-galactosidase activity 0.2 μg DNA/well” value is 359 μunits of beta-galactosidase p and the “Beta-galactosidase activity 1 μg DNA/well” value is reported as 0 μunits of beta-galactosidase p.
Turning to `CCCCCCCCCCCCCCCC(=O)NCC[C@H](N)C(=O)N[C@H](CCN)C(=O)N[C@H](CCN)C(=O)N[C@@H](CCN)C(=O)NN` [N^γ palmitoyl-L (α,γ-diaminobutyryl)-D (α,γ-diaminobutyryl)-D (α,γ-diaminobutyryl)-L (α,γ-diaminobutyric acid) hyrazide] (H-[Dab](Palmitoyl)[dDab][dDab][Dab]-NHNH2), in assay [1], the “Beta-galactosidase activity 0.2 μg DNA/well” value is recorded as 497 μunits of beta-galactosidase p and the “Beta-galactosidase activity 1 μg DNA/well” value is 542 μunits of beta-galactosidase p.
Taken in the same sequence, the figures for `CCCCCCCCCCCCCCCC(=O)NCC[C@H](N)C(=O)N[C@@H](CCN)C(=O)N[C@@H](CCN)C(=O)N[C@@H](CCN)C(=O)NN` [N^γ palmitoyl-L (α,γ-diaminobutyryl)-L (α,γ-diaminobutyryl)-L (α,γ-diaminobutyryl)-L (α,γ-diaminobutyric acid) hydrazide] (H-[Dab](Palmitoyl)[Dab][Dab][Dab]-NHNH2) were 1800 μunits of beta-galactosidase p and 7835 μunits of beta-galactosidase p.
In the case of `CCCCCCCCCCCCCCCC(=O)NCC[C@@H](N)C(=O)N[C@@H](CCN)C(=O)NN` [cpd A, Nγ-palmitoyl-D-(α,γ-diaminobutyryl)-L-(α,γ-diaminobutyric acid) hydrazide] (H-[dDab](Palmitoyl)-[Dab]-NHNH2), the “enhancement cpd A over Lipofectamine” value in assay [2] came to 5; in assay [3] it was 33; in assay [4], 12; in assay [5], 4. Moreover, the “transfection efficiency expressed as beta-galactosidase activity” value in assay [1] (Example 2: DOPE/dicaproyl phosphatidylcholine mixed micelles, plasmid pCH110, 0.2 μg of DNA per well) was found to be 7280 μUnits per well; in assay [1] (Example 2: DOPE/dicaproyl phosphatidylcholine mixed micelles, plasmid pCH110, 1 μg of DNA per well), 6375 μUnits per well; in assay [1] (Example 3: compound premixed with DOPE liposomes, then added to DNA, 0.2 μg of DNA per well) it was 4205 μUnits per well; in assay [1] (Example 3: compound premixed with DOPE liposomes, then added to DNA, 1 μg of DNA per well) it was 7880 μUnits per well. The “Beta-galactosidase activity 0.2 μg DNA/well” value in assay [1] is 5772 μunits of beta-galactosidase p. Also, the “Beta-galactosidase activity 1 μg DNA/well” value in assay [1] is reported as 9942 μunits of beta-galactosidase p.
On to “N^α methyl arachidoyl-L lysyl-L lysine methyl ester”, for which, in assay [1], the “Beta-galactosidase activity 0.2 μg DNA/well” value is 0 μunits of beta-galactosidase p and the “Beta-galactosidase activity 1 μg DNA/well” value is given as 148 μunits of beta-galactosidase p.
Taken in the same sequence, the figures for N^α oleoyl-L lysyl-L lysine ethyl ester were 0 μunits of beta-galactosidase p and 1333 μunits of beta-galactosidase p.
For the compound “N^α palmitoyl-L (α,γ-diaminobutyryl)-L lysine methyl ester”, in assay [1], the “Beta-galactosidase activity 1 μg DNA/well” value was 791 μunits of beta-galactosidase p.
As to “N^α palmitoyl-L lysyl-L lysine ethyl ester”, in assay [1], the “Beta-galactosidase activity 0.2 μg DNA/well” value was 138 μunits of beta-galactosidase p and the “Beta-galactosidase activity 1 μg DNA/well” value is given as 424 μunits of beta-galactosidase p.
Taken in the same sequence, the figures for “N^α palmitoyl-L lysyl-L lysine methyl ester” were 0 μunits of beta-galactosidase p and 150 μunits of beta-galactosidase p.
In the case of “N^γ γ palmitoyl-D (α,ε-diaminopropionyl)-L (α,ε-diaminopropionic acid) hydrazide”, in assay [1], the “Beta-galactosidase activity 0.2 μg DNA/well” value was 0 μunits of beta-galactosidase p and the “Beta-galactosidase activity 1 μg DNA/well” value is listed as 3671 μunits of beta-galactosidase p.
Consider “N^ε palmitoyl-L lysyl-L lysine methyl ester”, for which, in assay [1], the “Beta-galactosidase activity 0.2 μg DNA/well” value was 0 μunits of beta-galactosidase p and the “Beta-galactosidase activity 1 μg DNA/well” value is 100 μunits of beta-galactosidase p.
Regarding “N^ε palmitoyl-L lysyl-L lysyl-L lysine methyl ester”, in assay [1], the “Beta-galactosidase activity 0.2 μg DNA/well” value is reported as 0 μunits of beta-galactosidase p and the “Beta-galactosidase activity 1 μg DNA/well” value is on record as 1426 μunits of beta-galactosidase p.
